In ChEMBL document CHEMBL1147193, “New 5-substituted thiazolo[3,2-b][1,2,4]triazol-6-ones: synthesis and anticancer evaluation” (2007):

Legend:
Type in all cases: functional
OVCAR-3 = experiment: Growth inhibition of human OVCAR-3 cells after 48 hrs by SRB protein assay; details: OVCAR-3, 48 h
OVCAR-4 = experiment: Growth inhibition of human OVCAR4 cells after 48 hrs by SRB protein assay; details: OVCAR-4, 48 h
OVCAR-5 = experiment: Growth inhibition of human OVCAR5 cells after 48 hrs by SRB protein assay; details: OVCAR-5, 48 h
OVCAR-8 = experiment: Growth inhibition of human OVCAR8 cells after 48 hrs by SRB protein assay; details: OVCAR-8, 48 h
786-0 = experiment: Growth inhibition of human 786-0 cells after 48 hrs by SRB protein assay; details: 786-0, 48 h
ACHN = experiment: Growth inhibition of human ACHN cells after 48 hrs by SRB protein assay
CAKI-1 = experiment: Growth inhibition of human CAKI1 cells after 48 hrs by SRB protein assay; details: CAKI-1, 48 h
A549 = experiment: Growth inhibition of human A549/ATCC cells after 48 hrs by SRB protein assay; details: A549, 48 h
IGROV-1 = experiment: Growth inhibition of human IGROV1 cells after 48 hrs by SRB protein assay; details: IGROV-1, 48 h
CCRF-CEM = experiment: Growth inhibition of human CCRF-CEM cells after 48 hrs by SRB protein assay
SW-620 = experiment: Growth inhibition of human SW620 cells after 48 hrs by SRB protein assay; details: SW-620, 48 h
BT-549 = experiment: Growth inhibition of human BT549 cells after 48 hrs by SRB protein assay; details: BT-549, 48 h
Hs-578T = experiment: Growth inhibition of human HS578T cells after 48 hrs by SRB protein assay
RPMI-8226 = experiment: Growth inhibition of human RPMI8226 cells after 48 hrs by SRB protein assay; details: RPMI-8226, 48 h
SF-268 = experiment: Anticancer activity against human SF268 cells assessed as growth of cells at 100 uM relative to untreated cells
K562 = experiment: Growth inhibition of human K562 cells after 48 hrs by SRB protein assay; details: K562, 48 h
HOP-62 = experiment: Growth inhibition of human HOP62 cells after 48 hrs by SRB protein assay; details: HOP-62, 48 h
HOP-92 = experiment: Growth inhibition of human HOP92 cells after 48 hrs by SRB protein assay; details: HOP-92, 48 h
NCI-H226 = experiment: Growth inhibition of human NCI-H226 cells after 48 hrs by SRB protein assay; details: NCI-H226, 48 h
NCI-H322M = experiment: Growth inhibition of human NCI-H322M cells after 48 hrs by SRB protein assay
NCI-H460 = experiment: Growth inhibition of human NCI-H460 cells after 48 hrs by SRB protein assay; details: NCI-H460, 48 h
NCI-H522 = experiment: Growth inhibition of human NCI-H522 cells after 48 hrs by SRB protein assay; details: NCI-H522, 48 h
COLO 205 = experiment: Growth inhibition of human COLO205 cells after 48 hrs by SRB protein assay; details: COLO 205, 48 h
HCC 2998 = experiment: Growth inhibition of human HCC2998 cells after 48 hrs by SRB protein assay; details: HCC 2998, 48 h
HCT-15 = experiment: Growth inhibition of human HCT15 cells after 48 hrs by SRB protein assay; details: HCT-15, 48 h
HT-29 = experiment: Growth inhibition of human HT29 cells after 48 hrs by SRB protein assay; details: HT-29, 48 h
[1] = Growth inhibition of human MALME 3M cells after 48 hrs by SRB protein assay
M14 = experiment: Growth inhibition of human M14 cells after 48 hrs by SRB protein assay; details: M14, 48 h
SK-MEL-2 = experiment: Growth inhibition of human SK-MEL-2 cells after 48 hrs by SRB protein assay; details: SK-MEL-2, 48 h
SK-MEL-5 = experiment: Growth inhibition of human SK-MEL-5 cells after 48 hrs by SRB protein assay; details: SK-MEL-5, 48 h
UACC-257 = experiment: Growth inhibition of human UACC257 cells after 48 hrs by SRB protein assay; details: UACC-257, 48 h
UACC-62 = experiment: Growth inhibition of human UACC62 cells after 48 hrs by SRB protein assay; details: UACC-62, 48 h
RXF 393 = experiment: Growth inhibition of human RXF393 cells after 48 hrs by SRB protein assay; details: RXF 393, 48 h
TK-10 = experiment: Growth inhibition of human TK10 cells after 48 hrs by SRB protein assay; details: TK-10, 48 h
SN12C = experiment: Growth inhibition of human SN12C cells after 48 hrs by SRB protein assay
MCF7 = experiment: Growth inhibition of human MCF7 cells after 48 hrs by SRB protein assay; details: MCF7, 48 h
NCI/ADR-RES = experiment: Growth inhibition of human NCI/ADR-RES cells after 48 hrs by SRB protein assay
MDA-MB-435 = experiment: Growth inhibition of human MDA-MB-435 cells after 48 hrs by SRB protein assay; details: MDA-MB-435, 48 h
T47D = experiment: Growth inhibition of human T47D cells after 48 hrs by SRB protein assay

GI50 (OVCAR-3): 18.6 µM
GI50 (OVCAR-4): 57.5 µM
GI50 (OVCAR-5): 18.2 µM
GI50 (OVCAR-8): 22.4 µM
GI50 (786-0): 16.6 µM
GI50 (ACHN): 21.4 µM
GI50 (A549): 61.7 µM
GI50 (CCRF-CEM): 20.4 µM
GI50 (SW-620): 37.2 µM
GI50 (BT-549): > 100 µM
GI50 (RPMI-8226): 25.1 µM
GI50 (K562): 31.6 µM
GI50 (NCI-H226): 22.9 µM
GI50 (NCI-H322M): 97.7 µM
GI50 (NCI-H460): > 100 µM
GI50 (NCI-H522): 19.5 µM
GI50 (COLO 205): 30.2 µM
GI50 (HCC 2998): > 100 µM
GI50 (HCT-15): 24.5 µM
GI50 (HT-29): 47.9 µM
GI50 (SK-MEL-2): > 100 µM
GI50 (SK-MEL-5): 17.4 µM
GI50 (MCF7): 25.1 µM
GI50 (MDA-MB-435): 26.3 µM
GI50 (T47D): 37.2 µM
Structure (SMILES): COc1ccc(NC(=O)CC2Sc3ncnn3C2=O)cc1 (configuration not stated)
TGI (OVCAR-3; read-out: Log TGI (converted)): 38 µM
TGI (OVCAR-4; read-out: Log TGI (converted)): > 100 µM
TGI (OVCAR-5; read-out: Log TGI (converted)): 32.4 µM
TGI (OVCAR-8; read-out: Log TGI (converted)): 46.8 µM
TGI (786-0; read-out: Log TGI (converted)): 30.9 µM
TGI (ACHN; read-out: Log TGI (converted)): 47.9 µM
GI50 (CAKI-1): 18.6 µM
TGI (CAKI-1; read-out: Log TGI (converted)): 34.7 µM
TGI (A549; read-out: Log TGI (converted)): > 100 µM
GI50 (IGROV-1): 67.6 µM
TGI (IGROV-1; read-out: Log TGI (converted)): > 100 µM
TGI (CCRF-CEM; read-out: Log TGI (converted)): 41.7 µM
TGI (SW-620; read-out: Log TGI (converted)): > 100 µM
TGI (BT-549; read-out: Log TGI (converted)): > 100 µM
GI50 (Hs-578T): 25.7 µM
TGI (Hs-578T; read-out: Log TGI (converted)): 44.7 µM
TGI (RPMI-8226; read-out: Log TGI (converted)): 64.6 µM
Activity (SF-268): 107%
TGI (K562; read-out: Log TGI (converted)): > 100 µM
GI50 (HOP-62): > 100 µM
TGI (HOP-62; read-out: Log TGI (converted)): > 100 µM
GI50 (HOP-92): 21.9 µM
TGI (HOP-92; read-out: Log TGI (converted)): 49 µM
TGI (NCI-H226; read-out: Log TGI (converted)): 42.7 µM
TGI (NCI-H322M; read-out: Log TGI (converted)): > 100 µM
TGI (NCI-H460; read-out: Log TGI (converted)): > 100 µM
TGI (NCI-H522; read-out: Log TGI (converted)): 43.7 µM
TGI (COLO 205; read-out: Log TGI (converted)): 79.4 µM
TGI (HCC 2998; read-out: Log TGI (converted)): > 100 µM
TGI (HCT-15; read-out: Log TGI (converted)): 52.5 µM
TGI (HT-29; read-out: Log TGI (converted)): > 100 µM
GI50 [1]: 17.4 µM
TGI ([1]; read-out: Log TGI (converted)): 33.9 µM
GI50 (M14): 18.2 µM
TGI (M14; read-out: Log TGI (converted)): 33.9 µM
TGI (SK-MEL-2; read-out: Log TGI (converted)): > 100 µM
TGI (SK-MEL-5; read-out: Log TGI (converted)): 35.5 µM
GI50 (UACC-257): 20 µM
TGI (UACC-257; read-out: Log TGI (converted)): 36.3 µM
GI50 (UACC-62): > 100 µM
TGI (UACC-62; read-out: Log TGI (converted)): > 100 µM
GI50 (RXF 393): 15.5 µM
TGI (RXF 393; read-out: Log TGI (converted)): 41.7 µM
GI50 (TK-10): 16.6 µM
TGI (TK-10; read-out: Log TGI (converted)): 30.9 µM
GI50 (SN12C): 25.1 µM
TGI (SN12C; read-out: Log TGI (converted)): 56.2 µM
TGI (MCF7; read-out: Log TGI (converted)): 64.6 µM
GI50 (NCI/ADR-RES): 31.6 µM
TGI (NCI/ADR-RES; read-out: Log TGI (converted)): > 100 µM
TGI (MDA-MB-435; read-out: Log TGI (converted)): 70.8 µM
TGI (T47D; read-out: Log TGI (converted)): > 100 µM
